US11590117B2, “Treatment of a hematologic malignancy with 2-(4-chlorophenyl)-n-((2-(2,6-dioxopiperidin-3-yl)-1-oxoisoindolin-5-yl)methyl)-2,2-difluoroacetamide” (priority 2016, dated 2023)
Values joined by “and” are separate entries in the source; they are usually repeats but may differ in a detail not shown here. Equal entries are not always repeated. Where two headings read alike, the source gives them in different places.

Legend:
[1] = system: HL-60 human AML cells; format: in vivo, SCID mice; conditions: for reduction in percentage of human CD33+/CD45+ tumor cells in the BM: vs vehicle control
Protocol: (§1) In this study, Compound 1 antitumor activity in the HL-60 IV AML xenograft model was studies. In this model, HL-60 human AML cells engraft in host BM and internal organs (eg, spleen, liver) and animals develop progressive peripheral leukocytosis. Female severe combined immunodeficiency (SCID) mice were inoculated with HL-60 cells by tail vein injection. To understand the effect of Compound 1 on the xenografted HL-60 cells, animals were dosed intraperitoneal (IP) with vehicle or Compound 1 (0.5, 1, 2.5, and 5 mg/kg) once daily (QD)×5 between Weeks 3 and 4 post-engraftment (AP6516, survival study) or animals were dosed IP twice daily (BID) with vehicle or Compound 1 for 5 or 10 consecutive days (5 mg/kg BID×5 or 2.5 mg/kg, BID×10) between Weeks 6 and 8 post-engraftment (Study AP6982, % human CD33+[hCD33+] cells in BM).
(§2) In this study, different Compound 1 dosing schedules (5 mg/kg, BID×5 consecutive days versus 2.5 mg/kg, BID×10 consecutive days) were studied while maintaining the total amount of drug administered constant. Vehicle control animals were treated with 5% N-methyl-2-pyrrolidone (NMP)/45% PEG 400/50% saline. Treatment was initiated 6 weeks post inoculation. Vehicle and Compound 1 treatment groups were terminated either on Day 7 (following 5 consecutive days of 5 mg/kg twice a day [BID] Compound 1) or on Day 11 (following 10 consecutive days of 2.5 mg/kg BID Compound 1) post treatment initiation. The primary endpoint for the study was percentage of hCD33+/CD45+ cells in the BM by FACS analysis. Additional endpoints included cell viability, body weight, and BM histology.
HL-60 cells were identified from femur bone marrow samples by FACS analysis as CD33+/CD45+ with human specific antibodies. The percentage of human CD33+/CD45+ cells in the BM of vehicle-treated animals from the BID×5 and BID×10 groups were 47.5±6% and 55.2±6%, respectively.

[2] = system: CFU-GEMM; experiment: Colony forming assay, bone marrow CD34+ cells in MethoCult; format: cell-based, human
Protocol: (§3) Experimental design: human bone marrow (BM) CD34+ cells were used to evaluate the potential for BM toxicity induced by Compound 1. In order to test the effects of Compound 1 on the functionality of hematopoietic progenitors, colony forming assays were done by seeding BM CD34+ cells on MethoCult medium. Cells were seeded directly in MethoCult with Compound 1 or cultured in liquid medium with Compound 1 for 2, 4, or 8 hours and then seeded in compound-free MethoCult to evaluate the effect of different exposure times. Early apoptosis induced by Compound 1 on HSC was analyzed by flow cytometry.
(§4) Results. Colony forming units (CFU) of common granulocyte/erythrocyte/monocyte/megakaryocyte (CFU-GEMM), CFU of granulocyte/monocyte (CFU-GM), burst forming unit of erythrocytes (BFU-E), and CFU of erythrocytes (CFU-E) in cultures exposed to Compound 1 or DMSO were scored on STEMvision.
(§5) Bone marrow CD34+ cells from normal donors were incubated with Compound 1 in MethoCult medium. Colony numbers for CFU-GM and BFU-E progenitors were counted using STEMVision automatic colony counting instrument and software and normalized to the colony number of the DMSO control. Results plotted as percentage of DMSO control vs concentration of Compound 1 were used to determine IC50 values. Data are shown as mean standard error of the mean of n=3 technical replicates. Donors were HD10, HD14, HD18, and HD19.

[3] = system: CFU-GM (granulocyte/monocyte progenitors); experiment: as above; format: cell-based, human
Protocol: as §3, §4, §5
FIGS. 33A and 33B provide, colony numbers after preincubation of bone marrow CD34+ cells with Compound 1 for 4 or 8 hours, respectively, in Iscove's medium, followed by incubation in MethoCult medium without Compound 1 for 14 days. FIG. 33C provides colony numbers after incubation of bone marrow CD34+ cells in MethoCult medium in continuous presence of Compound 1 for 14 days.

[4] = system: HL-60 human AML cells; experiment: HL-60 IV AML xenograft model, survival study; format: in vivo, SCID mice
Protocol: as §1
Tumor burden from the peripheral blood of HL-60-bearing animals was assessed by fluorescence-activated cell sorting (FACS) at Week 7 post-tumor cell inoculation. […] Mice from the vehicle control and Compound 1 treatment groups succumbed to disease burden starting on Day 54 for the vehicle control group and between Day 51 and Day 57 for the Compound 1 treatment groups. […] One mouse (1/8) from the 2.5 mg/kg Compound 1-treated group survived to study termination on Day 162.

[5] = system: HL-60 human AML cells; experiment: HL-60 IV AML xenograft model, bone marrow histology; format: in vivo, SCID mice
Protocol: as §2
The alternate femur of vehicle and Compound 1-treated animals was fixed in formalin, embedded in paraffin and processed for hematoxylin and eosin staining. A single tissue section/animal was used for histological analysis and the percent of tumor in viable bone marrow was estimated based on the area occupied by tumor cells. There was a significant 35% reduction (p<0.006 relative to the vehicle control) in the percentage of viable tumor in the bone marrow with Compound 1 (5 mg/kg) BID×5 treatment. […]

[6] = Donor HD10, 7.4 nM Compound 1, replicate counts
[7] = Donor HD10, 22.2 nM Compound 1, replicate counts
[8] = Donor HD10, 67 nM Compound 1, replicate counts
[9] = Donor HD10, 200 nM Compound 1, replicate counts
[10] = Donor HD10, 600 nM Compound 1, replicate counts
[11] = Donor HD14, 7.4 nM Compound 1, replicate counts
[12] = Donor HD14, 22.2 nM Compound 1, replicate counts
[13] = Donor HD14, 67 nM Compound 1, replicate counts
[14] = Donor HD14, 200 nM Compound 1, replicate counts
[15] = Donor HD14, 600 nM Compound 1, replicate counts
[16] = Donor HD18, 7.4 nM Compound 1, replicate counts
[17] = Donor HD18, 22.2 nM Compound 1, replicate counts
[18] = Donor HD18, 67 nM Compound 1, replicate counts
[19] = Donor HD18, 200 nM Compound 1, replicate counts
[20] = Donor HD18, 600 nM Compound 1, replicate counts
[21] = Donor HD19, 7.4 nM Compound 1, replicate counts
[22] = Donor HD19, 22.2 nM Compound 1, replicate counts
[23] = Donor HD19, 67 nM Compound 1, replicate counts
[24] = Donor HD19, 200 nM Compound 1, replicate counts
[25] = Donor HD19, 600 nM Compound 1, replicate counts

O=C1CCC(N2Cc3cc(CNC(=O)C(F)(F)c4ccc(Cl)cc4)ccc3C2=O)C(=O)N1 (centres unmarked) [Compound 1, 2-(4-chlorophenyl)-N-((2-(2,6-dioxopiperidin-3-yl)-1-oxoisoindolin-5-yl)methyl)-2,2-difluoroacetamide]
human CD33+/CD45+ cells in the BM ([1]; 2.5 mg/kg IP BID×10): 15.7%
reduction in percentage of human CD33+/CD45+ tumor cells in the BM ([1]; 2.5 mg/kg IP BID×10, p<0.0001): 71.5%
human CD33+/CD45+ cells in the BM ([1]; 5 mg/kg IP BID×5): 21.9%
reduction in percentage of human CD33+/CD45+ tumor cells in the BM ([1]; 5 mg/kg IP BID×5, p=0.0013): 54.0%
Colony Number CFU-GEMM [2, 6]: 4 and 2
Colony Number CFU-GEMM [2, 7]: 2 and 0
Colony Number CFU-GEMM [2, 8]: 5 and 1
Colony Number CFU-GEMM [2, 9]: 0
Colony Number CFU-GEMM [2, 10]: 0
Colony Number CFU-GEMM [2, 11]: 0
Colony Number CFU-GEMM [2, 12]: 0
Colony Number CFU-GEMM [2, 13]: 0
Colony Number CFU-GEMM [2, 14]: 0
Colony Number CFU-GEMM [2, 15]: 0
Colony Number CFU-GEMM [2, 16]: 2 and 4
Colony Number CFU-GEMM [2, 17]: 1
Colony Number CFU-GEMM [2, 18]: 0
Colony Number CFU-GEMM [2, 19]: 0
Colony Number CFU-GEMM [2, 20]: 0
Colony Number CFU-GEMM [2, 21]: 4
Colony Number CFU-GEMM [2, 22]: 0 and 1
Colony Number CFU-GEMM [2, 23]: 0 and 1
Colony Number CFU-GEMM [2, 24]: 0
Colony Number CFU-GEMM [2, 25]: 0
Colony Number CFU-GM [3, 6]: 82 and 74
Colony Number CFU-GM [3, 7]: 71 and 80
Colony Number CFU-GM [3, 8]: 48 and 61
Colony Number CFU-GM [3, 9]: 2 and 0
Colony Number CFU-GM [3, 10]: 0
Colony Number CFU-GM [3, 11]: 15 and 12
Colony Number CFU-GM [3, 12]: 16 and 15
Colony Number CFU-GM [3, 13]: 6 and 4
Colony Number CFU-GM [3, 14]: 0
Colony Number CFU-GM [3, 15]: 0
Colony Number CFU-GM [3, 16]: 59 and 73
Colony Number CFU-GM [3, 17]: 55 and 62
Colony Number CFU-GM [3, 18]: 2 and 6
Colony Number CFU-GM [3, 19]: 0
Colony Number CFU-GM [3, 20]: 0
Colony Number CFU-GM [3, 21]: 44 and 70
Colony Number CFU-GM [3, 22]: 34 and 35
Colony Number CFU-GM [3, 23]: 4 and 5
Colony Number CFU-GM [3, 24]: 0
Colony Number CFU-GM [3, 25]: 0
IC50 ([3]; Homo sapiens, CFU-GM, CD34+ cells from four healthy donors, Compound 1 in MethoCult, read-out: IC50, inhibition of granulo-monocytic progenitors (CFU-GM)): 82 to 135 nM
mice surviving to study termination on Day 162 ([4]; 2.5 mg/kg group): 1/8
overall survival ([4]; 0.5, 1, 2.5, 5 mg/kg IP QD×5 between Weeks 3 and 4 post-engraftment): No overall survival benefit
tumor burden from peripheral blood (FACS) ([4]; Week 7 post-tumor cell inoculation, 0.5, 1, 2.5, 5 mg/kg IP QD×5, vs vehicle): No effect
reduction in percentage of viable tumor in the bone marrow (histology) ([5]; 2.5 mg/kg BID×10, relative to vehicle control, not statistically significant): 23.5%
reduction in percentage of viable tumor in the bone marrow (histology) ([5]; 5 mg/kg BID×5, p<0.006 relative to vehicle control): 35%
